In ChEMBL document CHEMBL3885881, “DrugMatrix”:

Species on record: Rattus norvegicus
Assay: DrugMatrix - Regimen: Daily Repeat
Type: toxicity, organism-based, Sprague-Dawley
Parameters: regimen Daily Repeat, gender Male, age 6-8 weeks
Details: in vivo, po, 0 mg/kg, route oral GAVAGE, dose level Control, […]; for ABSOLUTE BASOPHIL / ABSOLUTE EOSINOPHIL / ABSOLUTE LYMPHOCYTE / ABSOLUTE MONOCYTE / ABSOLUTE SEGMENTED NEUTROPHIL / BASOPHIL / EOSINOPHIL / ERYTHROCYTE COUNT / HEMATOCRIT / HEMOGLOBIN / LEUKOCYTE COUNT / LYMPHOCYTE / MEAN CORPUSCULAR HEMOGLOBIN / MEAN CORPUSCULAR HEMOGLOBIN CONCENTRATION / MEAN CORPUSCULAR VOLUME / MONOCYTE / NEUTROPHIL / NUCLEATED RED BLOOD CELLS / PLATELET COUNT: tissue Blood; for ALANINE AMINOTRANSFERASE / ALBUMIN / ALKALINE PHOSPHATASE / ASPARTATE AMINOTRANSFERASE / BLOOD UREA NITROGEN / CARBON DIOXIDE / CHLORIDE / CHOLESTEROL / CREATINE PHOSPHOKINASE / CREATININE / GLUCOSE / LACTATE DEHYDROGENASE / LIPASE / PHOSPHORUS / POTASSIUM / SODIUM / TOTAL BILIRUBIN / TOTAL PROTEIN / URIC ACID: tissue Plasma

For `COc1ccc2[nH]c([S+]([O-])Cc3ncc(C)c(OC)c3C)nc2c1` (stereo unspecified) [OMEPRAZOLE], the “ABSOLUTE BASOPHIL” value (72 h, time 3 day) was 0 CELLS/uL, the “ABSOLUTE EOSINOPHIL” value (72 h, time 3 day) was 70.67 CELLS/uL and the “ABSOLUTE LYMPHOCYTE” value (72 h, time 3 day) was 12761.5 CELLS/uL. For the same compound, the “ABSOLUTE MONOCYTE” value (72 h, time 3 day) was 214.17 CELLS/uL, the “ABSOLUTE SEGMENTED NEUTROPHIL” value (72 h, time 3 day) was 987 CELLS/uL and the BASOPHIL (72 h, time 3 day) was 0%. The EOSINOPHIL (72 h, time 3 day) was 0.5%, the “ERYTHROCYTE COUNT” value (72 h, time 3 day) was 5.61 x10E6/uL and the HEMATOCRIT (72 h, time 3 day) was 35.22%. The HEMOGLOBIN (72 h, time 3 day) was 13.57 G/DL, the “LEUKOCYTE COUNT” value (72 h, time 3 day) was 14.03 x10E3/uL and the LYMPHOCYTE (72 h, time 3 day) was 91%. For the same compound, the “MEAN CORPUSCULAR HEMOGLOBIN” value (72 h, time 3 day) was 24.25 pg, the “MEAN CORPUSCULAR HEMOGLOBIN CONCENTRATION” value (72 h, time 3 day) was 38.52 G/DL and the “MEAN CORPUSCULAR VOLUME” value (72 h, time 3 day) was 62.9 fL. The MONOCYTE (72 h, time 3 day) was 1.5%, the NEUTROPHIL (72 h, time 3 day) was 7% and the “NUCLEATED RED BLOOD CELLS” value (72 h, time 3 day) was 0 /100WBC. For the same compound, the “PLATELET COUNT” value (72 h, time 3 day) was 997.5 x10E3/uL, the “ALANINE AMINOTRANSFERASE” value (72 h, time 3 day) was 66.5 u/L and the ALBUMIN (72 h, time 3 day) was 3.98 G/DL. The “ALKALINE PHOSPHATASE” value (72 h, time 3 day) was 350 u/L, the “ASPARTATE AMINOTRANSFERASE” value (72 h, time 3 day) was 83.83 u/L and the “BLOOD UREA NITROGEN” value (72 h, time 3 day) was 12.33 mg/dL. For the same compound, the “CARBON DIOXIDE” value (72 h, time 3 day) was 30.33 mmol/L, the CHLORIDE (72 h, time 3 day) was 100 MEQ/L and the CHOLESTEROL (72 h, time 3 day) was 75 mg/dL. For the same compound, the “CREATINE PHOSPHOKINASE” value (72 h, time 3 day) was 200 u/L, the CREATININE (72 h, time 3 day) was 0.17 mg/dL and the GLUCOSE (72 h, time 3 day) was 170 mg/dL. For the same compound, the “LACTATE DEHYDROGENASE” value (72 h, time 3 day) was 89.33 u/L, the LIPASE (72 h, time 3 day) was 10.33 u/L and the PHOSPHORUS (72 h, time 3 day) was 10.88 mg/dL. The POTASSIUM (72 h, time 3 day) was 6.13 MEQ/L, the SODIUM (72 h, time 3 day) was 140.53 MEQ/L and the “TOTAL BILIRUBIN” value (72 h, time 3 day) was 0.2 mg/dL. For the same compound, the “TOTAL PROTEIN” value (72 h, time 3 day) was 5.67 G/DL, the “URIC ACID” value (72 h, time 3 day) was 1.6 mg/dL and the “ABSOLUTE BASOPHIL” value (120 h, time 5 day) was 0 CELLS/uL. The “ABSOLUTE EOSINOPHIL” value (120 h, time 5 day) was 0 CELLS/uL, the “ABSOLUTE LYMPHOCYTE” value (120 h, time 5 day) was 9526.67 CELLS/uL and the “ABSOLUTE MONOCYTE” value (120 h, time 5 day) was 134.17 CELLS/uL. For the same compound, the “ABSOLUTE SEGMENTED NEUTROPHIL” value (120 h, time 5 day) was 922.5 CELLS/uL, the BASOPHIL (120 h, time 5 day) was 0% and the EOSINOPHIL (120 h, time 5 day) was 0%. The “ERYTHROCYTE COUNT” value (120 h, time 5 day) was 5.58 x10E6/uL, the HEMATOCRIT (120 h, time 5 day) was 34.78% and the HEMOGLOBIN (120 h, time 5 day) was 13.5 G/DL. The “LEUKOCYTE COUNT” value (120 h, time 5 day) was 10.58 x10E3/uL, the LYMPHOCYTE (120 h, time 5 day) was 90.17% and the “MEAN CORPUSCULAR HEMOGLOBIN” value (120 h, time 5 day) was 24.27 pg. For the same compound, the “MEAN CORPUSCULAR HEMOGLOBIN CONCENTRATION” value (120 h, time 5 day) was 38.82 G/DL, the “MEAN CORPUSCULAR VOLUME” value (120 h, time 5 day) was 62.48 fL and the MONOCYTE (120 h, time 5 day) was 1.17%. The NEUTROPHIL (120 h, time 5 day) was 8.67%, the “NUCLEATED RED BLOOD CELLS” value (120 h, time 5 day) was 0.17 /100WBC and the “PLATELET COUNT” value (120 h, time 5 day) was 807.17 x10E3/uL. For the same compound, the “ALANINE AMINOTRANSFERASE” value (120 h, time 5 day) was 66.83 u/L, the ALBUMIN (120 h, time 5 day) was 3.73 G/DL and the “ALKALINE PHOSPHATASE” value (120 h, time 5 day) was 286.17 u/L. The “ASPARTATE AMINOTRANSFERASE” value (120 h, time 5 day) was 142.33 u/L, the “BLOOD UREA NITROGEN” value (120 h, time 5 day) was 14.67 mg/dL and the “CARBON DIOXIDE” value (120 h, time 5 day) was 25.5 mmol/L. For the same compound, the CHLORIDE (120 h, time 5 day) was 89.17 MEQ/L, the CHOLESTEROL (120 h, time 5 day) was 75.17 mg/dL and the “CREATINE PHOSPHOKINASE” value (120 h, time 5 day) was 310.67 u/L. The CREATININE (120 h, time 5 day) was 0.2 mg/dL, the GLUCOSE (120 h, time 5 day) was 153 mg/dL and the “LACTATE DEHYDROGENASE” value (120 h, time 5 day) was 1594 u/L. For the same compound, the LIPASE (120 h, time 5 day) was 14.83 u/L, the PHOSPHORUS (120 h, time 5 day) was 11.28 mg/dL and the POTASSIUM (120 h, time 5 day) was 8.46 MEQ/L. The SODIUM (120 h, time 5 day) was 126.88 MEQ/L, the “TOTAL BILIRUBIN” value (120 h, time 5 day) was 0.37 mg/dL and the “TOTAL PROTEIN” value (120 h, time 5 day) was 5.53 G/DL. For the same compound, the “URIC ACID” value (120 h, time 5 day) was 1.52 mg/dL.
